In patent US8765730B2 (Hoffmann-La Roche Inc, priority 2010, dated 2014):
Read-outs that look alike come from different tables or passages of the source.

Biological target: T1, human GPBAR1 receptor (Homo sapiens, UniProt Q8TDU6)
T1 construct: expressed in transfected cells
T1 sequence (Q8TDU6 1-330): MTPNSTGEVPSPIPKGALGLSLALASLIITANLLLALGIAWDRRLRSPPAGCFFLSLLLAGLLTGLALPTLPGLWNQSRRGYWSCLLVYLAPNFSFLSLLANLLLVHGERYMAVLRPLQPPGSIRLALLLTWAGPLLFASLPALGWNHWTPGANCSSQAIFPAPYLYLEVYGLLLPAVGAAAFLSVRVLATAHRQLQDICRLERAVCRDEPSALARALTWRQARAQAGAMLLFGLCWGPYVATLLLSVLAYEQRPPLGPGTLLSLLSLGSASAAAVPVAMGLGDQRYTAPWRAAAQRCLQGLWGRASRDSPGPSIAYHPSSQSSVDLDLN
Test: functional cAMP assay in CHO-dhfr(minus) cells expressing human GPBAR1 receptors
Format: cell-based
Settings: 30 min at 30° C.
Procedure: The final clone was verified by DNA sequence analysis. The plasmid was transfected into CHO cells deficient in dihydrofolate reductase activity (CHO-dhfr−) using Lipofectamine plus (Invitrogen). Clones were isolated in limited dilution conditions and identified by activities in the cAMP assay using lithocholic acid as agonist.
The growth medium was exchanged with Krebs Ringer Bicarbonate buffer with 1 mM IBMX and incubated at 30° C. for 30 min. Compounds were added to a final assay volume of 100 μl and incubated for 30 min at 30° C. […] The time-resolved energy transfer is measured by a TRF reader (Evotec Technologies GmbH, Hamburg Germany), equipped with a ND:YAG laser as excitation source.
EC50 values were determined using Activity Base analysis (ID Business Solution, Limited). […] Specificity for GPBAR1 was tested in non-transfected CHO cells in the same assay as above.

[1] = human EC50, functional cAMP assay

Row | SMILES | EC50 [1] [µM] | EC50 (functional cAMP assay, read-out: human EC50) [µM]
1 | Cc1ccccc1[C@H](C/C(=N\O)c1ccc(=O)n(C)c1)c1ccc(C2CCN(S(N)(=O)=O)CC2)cc1 [Example 510, (R,E)-4-(4-(3-(Hydroxyimino)-3-(1-methyl-6-oxo-1,6-dihydropyridin-3-yl)-1-o-tolylpropyl)phenyl)piperidine-1-sulfonamide] | 0.048 | –
2 | Cc1cc(/C(C[C@H](c2ccc(-c3nnc(CC(=O)O)o3)cc2)c2ccccc2C)=N/O)ccn1 (single isomer, unassigned) [Example 422, (5-{4-[(−)-3-[(E)-Hydroxyimino]-3-(2-methyl-pyridin-4-yl)-1-o-tolyl-propyl]-phenyl}-[1,3,4]oxadiazol-2-yl)-acetic acid] | 0.011 | –
3 | Cc1cnc(F)cc1C(CC(c1ccccc1)c1ccccc1)=NO (racemic) [Example 59, 1-(2-Fluoro-5-methyl-pyridin-4-yl)-3,3-diphenyl-propan-1-one oxime] | 0.017 | –
4 | Cc1cc(/C(C[C@H](c2ccc(Br)cc2)c2ccc(Cl)cc2C)=N/O)ccn1 [Example 386, (R,E)-3-(4-bromophenyl)-3-(4-chloro-2-methylphenyl)-1-(2-methylpyridin-4-yl)propan-1-one oxime] | 0.169 | –
5 | Cc1cc(/C(CC(c2ccc(Br)cc2)c2ccc(F)cc2C)=N/O)ccn1 (stereo not shown) [Example 140, (E)-3-(4-Bromophenyl)-3-(4-fluoro-2-methylphenyl)-1-(2-methylpyridin-4-yl)propan-1-one oxime] | 0.012 | –
6 | CC(=O)N1CC(c2ccc([C@@H](C/C(=N\O)c3ccnc(C)c3)c3ccccc3C)cc2)C1 [Example 483] | 0.031 | –
7 | Cn1cc(/C(CC(c2ccc(-c3ccc(CC(=O)O)cc3)cc2)c2ccc(Cl)cc2F)=N/O)ccc1=O (single isomer, unassigned) [Example 461, {4′-[(−)-1-(4-Chloro-2-fluoro-phenyl)-3-[(E)-hydroxyimino]-3-(1-methyl-6-oxo-1,6-dihydro-pyridin-3-yl)-propyl]-biphenyl-4-yl}-acetic acid] | 0.156 | –
8 | Cn1cc(/C(CC(c2ccc(Br)cc2)C2CCCC2)=N/O)ccc1=O (stereo not shown) [Example 172, 5-{3-(4-Bromo-phenyl)-3-cyclopentyl-1-[(E)-hydroxyimino]-propyl}-1-methyl-1H-pyridin-2-one] | 0.056 | –
9 | O/N=C(\CC(O)(c1ccccc1)c1ccccc1)c1ccncc1 [Example 154, (E)-3-Hydroxy-3,3-diphenyl-1-pyridin-4-yl-propan-1-one oxime] | – | 0.549
10 | Cc1cc(/C(CC(c2ccc(C(=O)NC3CC3)cc2)c2ccc(F)cc2F)=N/O)ccn1 (stereo not shown) [Example 432, N-Cyclopropyl-4-[1-(2,4-difluoro-phenyl)-3-[(E)-hydroxyimino]-3-(2-methyl-pyridin-4-yl)-propyl]-benzamide] | 0.057 | –
11 | Cc1ccccc1C(C/C(=N\O)c1cc(F)cc(F)c1)c1ccc(-c2cncnc2)cc1 (stereo not shown) [Example 54, (E)-1-(3,5-Difluoro-phenyl)-3-(4-pyrimidin-5-yl-phenyl)-3-o-tolyl-propan-1-one oxime] | 2.58 | –
12 | Cc1cc(Cl)ccc1C(C/C(=N\O)c1ccc(=O)n(C)c1)c1ccc(OCCCC(=O)O)c(F)c1 (stereo not shown) [Example 327, 4-{4-[1-(4-Chloro-2-methyl-phenyl)-3-[(E)-hydroxyimino]-3-(1-methyl-6-oxo-1,6-dihydro-pyridin-3-yl)-propyl]-2-fluoro-phenoxy}-butyric acid] | 0.197 | –
13 | Cc1cc(/C(C[C@H](c2ccc(N3CCC(C(=O)NCC(=O)O)CC3)cc2)c2ccccc2C)=N/O)ccn1 [Example 369, (R,E)-2-(1-(4-(3-(Hydroxyimino)-3-(2-methylpyridin-4-yl)-1-o-tolylpropyl)phenyl)-piperidine-4-carboxamido)acetic acid] | 0.002 | –
14 | Cc1cc(/C(C[C@@H](c2ccc(-c3ccc(C(=O)O)c(Cl)c3)cc2)c2ccc(Cl)cc2F)=N/O)ccn1 (single isomer, unassigned) [Example 453, (+)-3-Chloro-4′-[1-(4-chloro-2-fluoro-phenyl)-3-[(E)-hydroxyimino]-3-(2-methyl-pyridin-4-yl)-propyl]-biphenyl-4-carboxylic acid] | 0.005 | –
15 | CC(C)CC(CC(=NO)c1ccncc1)c1ccc(Br)cc1 (racemic) [Example 114, 3-(4-Bromo-phenyl)-5-methyl-1-pyridin-4-yl-hexan-1-one oxime] | 1.08 | –
16 | Cc1cc(C(CC(c2cccc(Br)c2)c2ccccc2C)=NO)ccn1 (racemic) [Example 98, 3-(3-Bromo-phenyl)-1-(2-methyl-pyridin-4-yl)-3-o-tolyl-propan-1-one oxime] | 0.146 | –
17 | Cc1cc(/C(CC(c2ccc(C(=O)N3CCOCC3)cc2)c2ccc(F)cc2F)=N/O)ccn1 (stereo not shown) [Example 438, 3-(2,4-Difluoro-phenyl)-1-(2-methyl-pyridin-4-yl)-3-[4-(morpholine-4-carbonyl)-phenyl]-propan-1-one oxime] | 0.132 | –
18 | Cc1cc(/C(CC(c2ccc(-c3ccc(C(=O)O)c(F)c3)cc2)c2ccccc2C(F)(F)F)=N/O)ccn1 (stereo not shown) [Example 135, 3-Fluoro-4′-[3-[(E)-hydroxyimino]-3-(2-methyl-pyridin-4-yl)-1-(2-trifluoromethyl-phenyl)-propyl]-biphenyl-4-carboxylic acid] | 0.029 | –
19 | Cc1cc(/C(C[C@@H](c2ccc(N3CCC(C(=O)O)CC3)cc2)c2ccc(Cl)cc2C)=N/O)ccn1 [Example 285, 1-{4-[(S)-1-(4-Chloro-2-methyl-phenyl)-3-[(E)-hydroxyimino]-3-(2-methyl-pyridin-4-yl)-propyl]-phenyl}-piperidine-4-carboxylic acid] | 0.004 | –
20 | Cc1cc(C(CC(c2cccc(C#CCO)c2)c2ccccc2C)=NO)ccn1 (racemic) [Example 106, 3-[3-(3-Hydroxy-prop-1-ynyl)-phenyl]-1-(2-methyl-pyridin-4-yl)-3-o-tolyl-propan-1-one oxime] | 0.255 | –
21 | CCOC(=O)c1ccc(-c2ccc([C@@H](C/C(=N\O)c3ccc(=O)n(C)c3)c3ccc(Cl)cc3F)cc2)s1 [Example 467, 5-{4-[(−)-1-(4-Chloro-2-fluoro-phenyl)-3-[(E)-hydroxyimino]-3-(1-methyl-6-oxo-1,6-dihydro-pyridin-3-yl)-propyl]-phenyl}-thiophene-2-carboxylic acid ethyl ester] | 0.348 | –
22 | Cc1cc(C(=O)O)ccc1-c1ccc(C(C/C(=N\O)c2ccc(=O)n(C)c2)c2ccc(Cl)cc2Cl)cc1 (racemic) [Example 476, 4′-[1-(2,4-Dichloro-phenyl)-3-[(E)-hydroxyimino]-3-(1-methyl-6-oxo-1,6-dihydro-pyridin-3-yl)-propyl]-2-methyl-biphenyl-4-carboxylic acid] | 0.049 | –
23 | C#Cc1ccc([C@@H](CC(=NO)c2ccnc(C)c2)c2ccccc2C)cc1 [Example 287, (R)-3-(4-Ethynyl-phenyl)-1-(2-methyl-pyridin-4-yl)-3-o-tolyl-propan-1-one oxime] | 0.002 | –
24 | CC(C)CC(C/C(=N/O)c1ccc(=O)n(C)c1)c1ccc(Br)cc1 (stereo not shown) [Example 171, 5-{3-(4-Bromo-phenyl)-1-[(Z)-hydroxyimino]-5-methyl-hexyl}-1-methyl-1H-pyridin-2-one] | 4 | –
25 | Cn1cc(/C(CC(c2ccccc2Cl)C2CCCC2)=N/O)ccc1=O (stereo not shown) [Example 197, 5-{3-(2-Chloro-phenyl)-3-cyclopentyl-1-[(E)-hydroxyimino]-propyl}-1-methyl-1H-pyridin-2-one] | 0.012 | –
